Like-named read-outs stand apart in the source and are kept apart here.
Columns and labels:
[1] = test system: E. coli; test: Minimum inhibitory concentration by microdilution assay; format: cell-based, Escherichia coli (ATCC 25922); conditions: for MIC E. coli: 37° C., 24 h
Protocol: (§1) Staphylococcus aureus (ATCC 6538, gram-positive), Escherichia coli (ATCC 25922, gram-negative), Pseudomonas aeruginosa (gram-negative), and Candida albicans (ATCC 10231, yeast) were used as representative microorganisms to challenge the antimicrobial functions of the imidazolium salts. All bacteria and yeast were stored frozen at −80° C., and were grown overnight at 37° C. in Tryptic Soy broth (TSB) prior to experiments. Yeast was grown overnight at 22° C. in Yeast Mold (YM) broth. Subsamples of these cultures were grown for 3 h further and diluted to give an optical density value of 0.07 at 600 nm, corresponding to 3×10^8 CFU mL^−1 (MacFarland's Standard).
(§2) The oligomer compounds were dissolved in PBS at a concentration of 1 mg mL^1 and the minimal inhibitory concentrations (MICs) were determined by microdilution assay. Typically, a 100 μL microbial solutions (containing 3×10^8 cells mL^−1) were added to 100 μL of PBS containing the test imidazolium salts (normally ranging from […] in serial two-fold dilutions) in each well of the 96-well microtiter plate. The plates were incubated at 37° C. for 24 h with shaking at 300 rpm, with monitoring at the 2, 4, 6, 8, and 24 h time points. […] Broth and PBS solution containing microbial cells alone were used as negative controls, and experiments were run in triplicates.

[2] = test system: C. Albicans; test: as above; format: cell-based, Candida albicans (ATCC 10231); conditions: 24 h
Protocol: as §1, §2

[3] = test system: E. coli; test: Time kill kinetics; format: cell-based, Escherichia coli; conditions: for fast killing in words: E. coli time kill; for % kill / Log reduction: E. coli, 4MIC, two minutes
Protocol: Time kill studies of the soligome compounds against E. coli were also studied. The experimental setup for time kill kinetics was similar to the set up for MBC determination. The microbes were treated with oligomer compounds at 4MIC concentration, and samples were taken out of each well at 2 minutes. 500 μl of cell suspension was removed, rescued by a series of 10-fold dilutions with growth medium, and kept on ice until plating. For plating, 50 μl to 200 μl of the diluted samples was spread on growth medium agar plates and colonies were counted after overnight incubation at 37° C.

[4] = Critical micellar concentration (pyrene fluorescent probe); format: physicochemical; conditions: for CMC in PBS: PBS buffer solution; for CMC in DI H2O: deionised water
Protocol: The CMC values of the oligomer compounds were determined in both deionised (DI) water and PBS, using a LS50B luminescence spectrometer (Perkin Elmer, United States) and employing pyrene as a fluorescent probe. A known weight of the oligomer compound was dissolved in either 2 mL of DI water or PBS in a 4 mL glass vial and serial dilutions were effected. 10 μL of pyrene stock solution in acetone (6.16×10^-5 M) was added to each vial containing 1 mL of a known concentration of the oligomer compound, and the acetone was then evaporated at room temperature. The solution was allowed to equilibrate overnight and the final concentration of pyrene in each vial was 6.16×10^-7 M. The excitation spectra of the solutions were scanned from 300 to 360 nm with an emission wavelength of 395 nm, and both the excitation and emission bandwidths were set at 2.5 nm. The intensity ratios ([…]/[…]) were plotted against polymer concentration. The CMC value was given by the intersection of the tangent to the curve at the inflection and the tangent of the points at low polymer concentrations.

[5] = test system: 4 microbes (S. aureus, E. coli, P. aeruginosa, C. Albicans); test: MIC over the 4 microbes tested (geometric mean); format: cell-based; conditions: geometric mean of the MICs of the 4 microbes
Protocol: Staphylococcus aureus (ATCC 6538, gram-positive), Escherichia coli (ATCC 25922, gram-negative), Pseudomonas aeruginosa (gram-negative), and Candida albicans (ATCC 10231, yeast) were used as representative microorganisms to challenge the antimicrobial functions of the imidazolium salts. All bacteria and yeast were stored frozen at −80° C., and were grown overnight at 37° C. in Tryptic Soy broth (TSB) prior to experiments. Yeast was grown overnight at 22° C. in Yeast Mold (YM) broth. […] Typically, a 100 μL microbial solutions (containing 3×10^8 cells mL^−1) were added to 100 μL of PBS containing the test imidazolium salts (normally ranging from […] in serial two-fold dilutions) in each well of the 96-well microtiter plate. The plates were incubated at 37° C. for 24 h with shaking at 300 rpm, with monitoring at the 2, 4, 6, 8, and 24 h time points. […] Broth and PBS solution containing microbial cells alone were used as negative controls, and experiments were run in triplicates. The selectivity of the materials was also further assessed, by calculating the selectivity indices (SI), a measure and a comparison of safety and efficacies of each oligomer compound. […] Herein, the more stringent control of HC10 value was chosen over the HC50 value often reported in literature.

[6] = Gelling properties in solvents (tube inversion test); format: physicochemical
Protocol: Gels were prepared by weighing the imidazolium oligomer compounds directly into 4 mL glass vials and subsequently adding a known weight or volume of the solvent. The vials containing both the imidazolium and the solvent were either vortexed or sonicated to ensure that the imidazolium was dissolved and dispersed thoroughly before being placed in a 4° C. fridge overnight. The tube inversion test method was used to examine gel formation in different solvents.

[7] = test system: P. aeruginosa; test: Minimum inhibitory concentration by microdilution assay; format: cell-based, Pseudomonas aeruginosa; conditions: 37° C., 24 h
Protocol: as §1, §2

[8] = test system: S. aureus; test: as above; format: cell-based, Staphylococcus aureus (ATCC 6538); conditions: 37° C., 24 h
Protocol: as §1, §2

[9] = test system: rat red blood cells (RBCs); test: Hemolysis; format: cell-based
Protocol: Before these materials can be used in systemic applications, selectivity of these materials for microbial cells over mammalian cells should also be considered. Such selectivity is often determined by observation of hemolysis. Hemolysis was performed in the following manner, fresh rat red blood cells (RBCs) were diluted with PBS buffer to give an RBC stock suspension (4 vol % blood cells). A 100 μL aliquot of RBC stock was added to a 96-well plate containing […] oligomer compound stock solutions of various concentrations (serial 2-fold dilution in PBS). After 1 h incubation at 37° C., The contents of each well was pipetted into a microcentrifuge tube and then centrifuged at 4000 rpm for 5 min. Hemolytic activity was determined as a function of hemoglobin release by measuring OD576 of […] of the supernatant. A control solution that contained only PBS was used as a reference for 0% hemolysis. 100% hemolysis was measured by adding 0.5% Triton-X to the RBCs. [formula] The selectivity of the materials was also further assessed, by calculating the selectivity indices (SI), a measure and a comparison of safety and efficacies of each oligomer compound. […] Herein, the more stringent control of HC10 value was chosen over the HC50 value often reported in literature.

[10] = lowest concentration that induces 10% or more hemolysis, rat RBCs, 1 h, 37° C., maximum tested 100,000 ppm

Row | MIC C.A. [2] | MIC E. coli [1] | MIC GM [5] | State in solvent ([6]; Acetone) | State in solvent ([6]; Acetonitrile) | Concentration to form gel ([6]; EtOH) | State in solvent ([6]; EtOH) | State in solvent ([6]; Ethylene glycol) | State in solvent ([6]; Glycerol) | Concentration to form gel ([6]; nBuOH) | State in solvent ([6]; nBuOH) | Concentration to form gel ([6]; nPrOH) | State in solvent ([6]; nPrOH) | MIC P.A. [7] | MIC S.A. [8] | CMC in PBS [4] | CMC in DI H2O [4] | Compound | fast killing in words [3] | % kill [3] | HC10 [9, 10] | also measured
1 | – | – | – | – | – | – | – | – | – | – | – | – | – | – | – | – | – | CCCCCCCC[n+]1ccn(C)c1.[Br-] [1-Methyl-3-octyl imidazolium bromide, reference compound] | – | – | – | MIC ([1]; Escherichia coli, Example 8, microbe not named, E. coli context): 1000 µg/mL; MIC relative to Compound 2 ([1]; ratio of MIC to that of Compound 2): more than 100 times
2 | 31 µg/mL | 8 µg/mL | 11.22 µg/mL | Insoluble | Insoluble | (9.0 wt %) | Gel | Solution | Solution | (5.8 wt %) | Gel | (7.2 wt %) | Gel | 16 µg/mL | 4 µg/mL | 10.9 ppm | 938.5 ppm | CCCCCCCCCCCC[n+]1ccn(Cc2ccc(C[n+]3ccn(Cc4ccc(C[n+]5ccn(Cc6ccccc6Cn6cc[n+](Cc7ccc(Cn8cc[n+](Cc9ccc(Cn%10cc[n+](CCCCCCCCCCCC)c%10)cc9)c8)cc7)c6)c5)cc4)c3)cc2)c1.[Br-].[Br-].[Cl-].[Cl-].[Cl-].[Cl-] [Compound 4] | instantaneous elimination | >99.9% | 31 ppm | Log reduction [3]: 3.69; Gel formation ([6]; binary mixtures of water/ethanol and glycerol/ethanol): did not form a gel
3 | 31 µg/mL | 16 µg/mL | 13.35 µg/mL | Insoluble | Insoluble | (12.9 wt %) | Gel | Solution | Solution | (5.3 wt %) | Gel | (5.3 wt %) | Gel | 16 µg/mL | 4 µg/mL | 4.9 ppm | 200.3 ppm | CCCCCCCCCCCCCC[n+]1ccn(Cc2ccc(C[n+]3ccn(Cc4ccc(C[n+]5ccn(Cc6ccccc6Cn6cc[n+](Cc7ccc(Cn8cc[n+](Cc9ccc(Cn%10cc[n+](CCCCCCCCCCCCCC)c%10)cc9)c8)cc7)c6)c5)cc4)c3)cc2)c1.[Br-].[Br-].[Cl-].[Cl-].[Cl-].[Cl-] [Compound 5] | – | – | 15 ppm | –
4 | 62 µg/mL | 16 µg/mL | 18.88 µg/mL | Insoluble | Insoluble | (9.6 wt %) | Gel | opaque gels and Gel | opaque gels and Gel | (6.9 wt %) | Gel | (6.9 wt %) | Gel | 16 µg/mL | 8 µg/mL | 1.3 ppm | 38.5 ppm | CCCCCCCCCCCCCCCC[n+]1ccn(Cc2ccc(C[n+]3ccn(Cc4ccc(C[n+]5ccn(Cc6ccccc6Cn6cc[n+](Cc7ccc(Cn8cc[n+](Cc9ccc(Cn%10cc[n+](CCCCCCCCCCCCCCCC)c%10)cc9)c8)cc7)c6)c5)cc4)c3)cc2)c1.[Br-].[Br-].[Cl-].[Cl-].[Cl-].[Cl-] [Compound 6] | – | – | 15 ppm | Concentration to form gel ([6]; Ethylene glycol): (4.7 wt %); Concentration to form gel ([6]; Glycerol): (6.3 wt %)
5 | 31 µg/mL | 16 µg/mL | 15.87 µg/mL | – | – | – | – | – | – | – | – | – | – | 16 µg/mL | 8 µg/mL | – | – | [Br-].[Br-].[Cl-].[Cl-].[Cl-].[Cl-].c1ccc(Cn2cc[n+](Cc3ccc(Cn4cc[n+](Cc5ccc(Cn6cc[n+](CC7CCCCC7)c6)cc5)c4)cc3)c2)c(Cn2cc[n+](Cc3ccc(Cn4cc[n+](Cc5ccc(Cn6cc[n+](CC7CCCCC7)c6)cc5)c4)cc3)c2)c1 [Compound 7] | – | – | 12500 ppm | Gel formation ([6]; any of the solvents): not able to form gels

Row | Compound | MIC C.A. [2] | MIC E. coli [1] | MIC GM [5] | State in solvent ([6]; Acetone) | State in solvent ([6]; Acetonitrile) | Concentration to form gel ([6]; EtOH) | State in solvent ([6]; EtOH) | State in solvent ([6]; Ethylene glycol) | State in solvent ([6]; Glycerol) | Concentration to form gel ([6]; nBuOH) | State in solvent ([6]; nBuOH) | Concentration to form gel ([6]; nPrOH) | State in solvent ([6]; nPrOH) | MIC P.A. [7] | MIC S.A. [8] | CMC in PBS [4] | CMC in DI H2O [4] | fast killing in words [3] | % kill [3] | HC10 [9, 10] | also measured
6 | CCCCCCCCCC[n+]1ccn(Cc2ccc(C[n+]3ccn(Cc4ccc(C[n+]5ccn(Cc6ccccc6Cn6cc[n+](Cc7ccc(Cn8cc[n+](Cc9ccc(Cn%10cc[n+](CCCCCCCCCC)c%10)cc9)c8)cc7)c6)c5)cc4)c3)cc2)c1.[Br-].[Br-].[Cl-].[Cl-].[Cl-].[Cl-] [Compound 3] | 31 µg/mL | 8 µg/mL | 9.44 µg/mL | Insoluble | Insoluble | (12 wt %) | Gel | Solution | Solution | (7.9 wt %) | Gel | (7.9 wt %) | Gel | 8 µg/mL | 4 µg/mL | – | – | instantaneous elimination | >99.9% | – | Log reduction [3]: 3.49; sharp point of inflection indicating the critical micellar concentrations ([4]; FIG. 4, deionized water): not observed; HC10 [9]: 500 ppm

Reference: US10570097B2, “Antimicrobial imidazolium compounds” (AGENCY FOR SCIENCE, TECHNOLOGY AND RESEARCH, priority 2014, dated 2020)
